Experimental data published in PubChem BioAssay AID1963439 (Molecular Pharmacology Branch, DTP, NCI, 2024).

System: NCI-H196 complex spheroids with HUVEC/MSC, growth % T/C
Assay: Anticancer human tumor NCI-H196 cell line growth inhibition [Asc];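 also: spheroids exposed to compound for 7 days before measurement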;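 as to viability, T/C: 100% = DMSO vehicle control wells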
Settings: for IC50: curve of first compound; for viability, T/C: stronger effect = lower value
Procedure, shortened: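 Complex solid-tumor spheroids incorporating human endothelial and mesenchymal stem cells received single agents or combinations over half-log dilution ranges anchored to clinical Cmax.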

[1] = second compound 0.03 µM, first compound 0.0316 µM
[2] = second compound 0.03 µM, first compound 0.1 µM
[3] = second compound 0.03 µM, first compound 0.316 µM
[4] = second compound 0.03 µM, first compound 1 µM
[5] = second compound 0.03 µM, first compound 3.16 µM
[6] = second compound 0.03 µM, first compound 10 µM
[7] = second compound 0.0949 µM, first compound 0.0316 µM
[8] = second compound 0.0949 µM, first compound 0.1 µM
[9] = second compound 0.0949 µM, first compound 0.316 µM
[10] = second compound 0.0949 µM, first compound 1 µM
[11] = second compound 0.0949 µM, first compound 3.16 µM
[12] = second compound 0.0949 µM, first compound 10 µM
[13] = second compound 0.3 µM, first compound 0.0316 µM
[14] = second compound 0.3 µM, first compound 0.1 µM
[15] = second compound 0.3 µM, first compound 0.316 µM
[16] = second compound 0.3 µM, first compound 1 µM
[17] = second compound 0.3 µM, first compound 3.16 µM
[18] = second compound 0.3 µM, first compound 10 µM
[19] = second compound 0.949 µM, first compound 0.0316 µM
[20] = second compound 0.949 µM, first compound 0.1 µM
[21] = second compound 0.949 µM, first compound 0.316 µM
[22] = second compound 0.949 µM, first compound 1 µM
[23] = second compound 0.949 µM, first compound 3.16 µM
[24] = second compound 0.949 µM, first compound 10 µM
[25] = second compound 3 µM, first compound 0.0316 µM
[26] = second compound 3 µM, first compound 0.1 µM
[27] = second compound 3 µM, first compound 0.316 µM
[28] = second compound 3 µM, first compound 1 µM
[29] = second compound 3 µM, first compound 3.16 µM
[30] = second compound 3 µM, first compound 10 µM
[31] = second compound 0.03 µM, first compound 0.00316 µM
[32] = second compound 0.03 µM, first compound 0.01 µM
[33] = second compound 0.0949 µM, first compound 0.00316 µM
[34] = second compound 0.0949 µM, first compound 0.01 µM
[35] = second compound 0.3 µM, first compound 0.00316 µM
[36] = second compound 0.3 µM, first compound 0.01 µM
[37] = second compound 0.949 µM, first compound 0.00316 µM
[38] = second compound 0.949 µM, first compound 0.01 µM
[39] = second compound 3 µM, first compound 0.00316 µM
[40] = second compound 3 µM, first compound 0.01 µM

Row | Structure (SMILES) | IC50 (second compound 0.03 µM) | IC50 (second compound 0.0949 µM) | IC50 (second compound 0.3 µM) | IC50 (second compound 0.949 µM) | IC50 (second compound 3 µM) | viability, T/C [1] | viability, T/C [2] | viability, T/C [3] | viability, T/C [4] | viability, T/C [7] | viability, T/C [8] | viability, T/C [9] | viability, T/C [10] | viability, T/C [13] | viability, T/C [14] | viability, T/C [15] | viability, T/C [16] | viability, T/C [19] | viability, T/C [20] | viability, T/C [21] | further results
1 | C#Cc1c(F)ccc2cc(O)cc(-c3ncc4c(N5CC6CCC(C5)N6)nc(OCC56CCCN5CC(F)C6)nc4c3F)c12 (stereo not given) + CCN1C(C(=O)NC23CCC(C(=O)O)(CC2)CC3)C(c2cccc(Cl)c2F)C2(C(=O)Nc3cc(Cl)ccc32)C12CCCCC2 | > 10 µM | > 10 µM | > 10 µM | > 10 µM | > 10 µM | 96.4% | 102% | 97.6% | 101% | 102% | 110% | 106% | 95.8% | 109% | 108% | 117% | 96.9% | 123% | 123% | 115% | viability, T/C [5]: 88.7%; viability, T/C [6]: 104%; viability, T/C [11]: 110%; viability, T/C [12]: 97.4%; viability, T/C [17]: 97.5%; viability, T/C [18]: 99%; viability, T/C [22]: 93%; viability, T/C [23]: 115%; viability, T/C [24]: 103%; viability, T/C [25]: 118%; viability, T/C [26]: 123%; viability, T/C [27]: 129%; viability, T/C [28]: 114%; viability, T/C [29]: 108%; viability, T/C [30]: 114%
2 | C=C(F)C(=O)N1CCN(c2nc(OCC3CCCN3C)nc3c2CCN(c2cccc4cccc(Cl)c24)C3)CC1CC#N (stereo not given) + CCN1C(C(=O)NC23CCC(C(=O)O)(CC2)CC3)C(c2cccc(Cl)c2F)C2(C(=O)Nc3cc(Cl)ccc32)C12CCCCC2 | > 10 µM | > 10 µM | > 10 µM | > 10 µM | > 10 µM | 124% | 106% | 108% | 102% | 112% | 107% | 113% | 101% | 108% | 114% | 103% | 115% | 115% | 119% | 117% | viability, T/C [5]: 108%; viability, T/C [6]: 93.2%; viability, T/C [11]: 109%; viability, T/C [12]: 96.2%; viability, T/C [17]: 110%; viability, T/C [18]: 98.1%; viability, T/C [22]: 106%; viability, T/C [23]: 114%; viability, T/C [24]: 105%; viability, T/C [25]: 135%; viability, T/C [26]: 119%; viability, T/C [27]: 117%; viability, T/C [28]: 120%; viability, T/C [29]: 112%; viability, T/C [30]: 114%
3 | C=CC(=O)N1CCN(c2nc(=O)n(-c3c(C)ccnc3C(C)C)c3nc(-c4c(O)cccc4F)c(F)cc23)C(C)C1 (stereo not given) + CCN1C(C(=O)NC23CCC(C(=O)O)(CC2)CC3)C(c2cccc(Cl)c2F)C2(C(=O)Nc3cc(Cl)ccc32)C12CCCCC2 | > 10 µM | > 10 µM | > 10 µM | > 10 µM | > 10 µM | 104% | 105% | 104% | 107% | 111% | 111% | 121% | 112% | 106% | 109% | 108% | 107% | 123% | 110% | 115% | viability, T/C [5]: 121%; viability, T/C [6]: 107%; viability, T/C [11]: 106%; viability, T/C [12]: 103%; viability, T/C [17]: 117%; viability, T/C [18]: 119%; viability, T/C [22]: 110%; viability, T/C [23]: 140%; viability, T/C [24]: 110%; viability, T/C [25]: 116%; viability, T/C [26]: 120%; viability, T/C [27]: 115%; viability, T/C [28]: 124%; viability, T/C [29]: 135%; viability, T/C [30]: 132%
4 | CNC(C)C(=O)NC1CN(S(=O)(=O)c2cccc(S(=O)(=O)N3CCC4CCC(C(=O)NC(c5ccccc5)c5ccccc5)N4C(=O)C(NC(=O)C(C)NC)C3)c2)CCC2CCC(C(=O)NC(c3ccccc3)c3ccccc3)N2C1=O (stereo not given) + CCN1C(C(=O)NC23CCC(C(=O)O)(CC2)CC3)C(c2cccc(Cl)c2F)C2(C(=O)Nc3cc(Cl)ccc32)C12CCCCC2 | < 0.00316 µM | < 0.00316 µM | < 0.00316 µM | 0.00318 µM | < 0.00316 µM | 4.75% | 1.79% | 2.4% | 1.46% | 4.24% | 4.09% | 2.61% | 1.28% | 5.95% | 3.82% | 3.47% | 1.29% | 6.82% | 2.74% | 2.84% | viability, T/C [31]: 40.6%; viability, T/C [32]: 17.9%; viability, T/C [33]: 45.3%; viability, T/C [34]: 19.1%; viability, T/C [35]: 47.4%; viability, T/C [36]: 16.6%; viability, T/C [37]: 50.4%; viability, T/C [38]: 18.4%; viability, T/C [22]: 2.2%; viability, T/C [39]: 47.6%; viability, T/C [40]: 16.9%; viability, T/C [25]: 4.77%; viability, T/C [26]: 2.4%; viability, T/C [27]: 3.09%; viability, T/C [28]: 1.59%
5 | COc1c(OCCCN2CCOCC2)ccc2c3n(c(=NC(=O)c4cnc(N)nc4)nc12)CCN3 + CCN1C(C(=O)NC23CCC(C(=O)O)(CC2)CC3)C(c2cccc(Cl)c2F)C2(C(=O)Nc3cc(Cl)ccc32)C12CCCCC2 | > 1 µM | > 1 µM | > 1 µM | > 1 µM | > 1 µM | 91% | 77.1% | 68.8% | 52.1% | 98.5% | 82.8% | 72.7% | 52.2% | 106% | 83.1% | 73.3% | 59.7% | 94.9% | 85.7% | 66.9% | viability, T/C [31]: 101%; viability, T/C [32]: 106%; viability, T/C [33]: 117%; viability, T/C [34]: 99.6%; viability, T/C [35]: 110%; viability, T/C [36]: 102%; viability, T/C [37]: 103%; viability, T/C [38]: 109%; viability, T/C [22]: 57.3%; viability, T/C [39]: 113%; viability, T/C [40]: 106%; viability, T/C [25]: 105%; viability, T/C [26]: 81.2%; viability, T/C [27]: 73.1%; viability, T/C [28]: 54.2%
